The values below come from patent US5696146A, “Indole derivatives as steroid 5α-reductase inhibitors” (Pfizer Inc., priority 1993, dated 1997).

In assay [1] the target is T1, human testosterone 5α-reductase-2 (Homo sapiens, UniProt P31213).
T1 construct: using tissue from hyperplastic human prostates; from tissue; host or cells: hyperplastic human prostate, 100,000G particulate preparation
T1 sequence (P31213 1-254): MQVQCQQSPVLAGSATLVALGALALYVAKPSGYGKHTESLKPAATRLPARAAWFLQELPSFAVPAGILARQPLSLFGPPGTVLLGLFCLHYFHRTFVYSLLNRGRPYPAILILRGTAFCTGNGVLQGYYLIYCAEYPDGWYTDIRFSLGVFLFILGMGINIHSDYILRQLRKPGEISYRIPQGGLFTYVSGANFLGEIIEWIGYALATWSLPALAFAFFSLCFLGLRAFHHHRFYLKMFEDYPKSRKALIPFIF
The assay is described as follows: in vitro inhibition of human testosterone 5α-reductase-2 from hyperplastic human prostate tissue (test method 2). Format: biochemical. As to conditions: hyperplastic human prostate particulate, pH 5.2, 37° C., 30 minutes. As to the method: (2) The compounds of the formula (I) may be tested for their potency in inhibiting human testosterone 5α-reductase-2 using tissue from hyperplastic human prostates. In determining inhibitory potency against human prostatic 5α-reductase-2 the following procedure was employed:
Frozen human prostate tissue was pulverised in liquid nitrogen using a steel mortar and pestle. The powdered tissue was homogenised in 4 volumes of Buffer A (20 mM sodium phosphate, pH 6.5, containing 0.32M sucrose, 1 mM dithiothreitol and 50 μM NADPH) with an Ultra-Turrax homogeniser (Janke and Kunkel GmBH & Co., Staufen i. BR., Germany). The homogenate was centrifuged at 500G for 5 minutes to remove large particles of tissue, and the supernatant was then centrifuged at 100,000G for 1 hour. The resulting pellet was dispersed in Buffer A (1 ml per g of prostate tissue originally used) with the Ultra-Turrax homogeniser. This particulate preparation was then filtered through 2 layers of cheesecloth and the filtrate was stored as 2ml samples at -70° C.
The following components, dissolved in Buffer B (25 mM citrate phosphate buffer, pH 5.2), were added to a test tube: 100 μl of [^3 H]-testosterone (1 μCi, 1 nmol; Du Pont, NEN Research Products, Stevenage, U.K.), 100 μl of NADPH regeneration system (5 mM NADPH, 50 mM glucose 6-phosphate, 5 units/ml glucose 6-phosphate dehydrogenase), a compound of the formula (I) dissolved in 5 μl of dimethyl sulphoxide, and Buffer B to give a final reaction volume of 1 ml. The mixture was warmed to 37° C. and the reaction started by addition of an aliquot of prostate particulate suspension. The reaction mixture was incubated at 37° C. for 30 minutes and was then quenched by addition, with vigorous mixing, of 2 ml of ethyl acetate containing 20 μg each of testosterone and 5α-dihydrotestosterone as carriers. The aqueous and organic layers were separated by centrifugation at 2000 G for 10 minutes. The organic layer was transferred to a second test tube and evaporated to dryness under nitrogen. The residue was dissolved in 50-80μl of absolute ethanol, spotted onto a silica gel 60 F254 TLC plate (E. Merck, Darmstadt, Germany) and developed in dichloromethane:acetone (185:15).
The radiochemical content in the bands of the substrate (testosterone) and the product (5α-dihydrotestosterone) were determined with a RITA Radio TLC Analyser (Raytest Instruments Ltd., Sheffield, U.K.). The percent of recovered radiolabel converted to 5α-dihydrotestosterone was calculated and used to determine enzyme activity. All incubations were conducted so that no more than 15% of substrate (testosterone) was converted to product.
The experimentally obtained data for a range of inhibitor concentrations was computer fitted to a sigmoidal dose-response curve and concentrations of compound giving 50% inhibition of 5α-reductase activity (IC50 's) were calculated using a SIGFIT program (De Lean, A., Munson, P. J. and Rodbard, D., American Journal of Physiology, 235, E97 (1978)).
(§1) The data were obtained using test method (4) set out on page 27 of the specification and test method (2) described on pages 24 to 26 of the specification, respectively.

Assay [2] has as its target T2, human testosterone 5α-reductase-1 (Homo sapiens, UniProt P18405).
T2 construct: expressed in transfected cells
T2 sequence (P18405 1-259): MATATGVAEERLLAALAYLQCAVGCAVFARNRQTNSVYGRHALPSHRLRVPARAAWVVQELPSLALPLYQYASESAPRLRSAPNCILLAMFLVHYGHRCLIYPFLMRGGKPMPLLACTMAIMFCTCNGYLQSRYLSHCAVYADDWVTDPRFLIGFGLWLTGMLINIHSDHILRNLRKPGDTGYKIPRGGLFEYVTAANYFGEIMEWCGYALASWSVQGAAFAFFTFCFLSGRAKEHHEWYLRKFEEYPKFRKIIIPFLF
The assay can be described thus: in vitro inhibition of cloned human testosterone 5α-reductase-1 (test method 4). Type of assay: biochemical.
Description: (4) The compounds of the formula (I) may be tested in vitro for human testosterone 5α-reductase-1 inhibitory activity using cloned human testosterone 5α-reductase-1 according to the procedure described in Proc. Natl. Acad. Sci. USA, 87, 3640 (1990).
as §1

Regarding `CCCCCCC1(c2ccc(CCC)cc2)Oc2ccc(CC(=O)c3cn(CCCC(=O)O)c4ccccc34)cc2O1` (stereo not drawn) [Example 2], the half-maximal inhibitory concentration (IC50) (in general, the point on the concentration scale where inhibition reaches its midpoint) in assay [1] was found to be 16.7 nM; in assay [2], 24 nM.

As for `CCCCC1(c2ccc(CC)cc2)Oc2ccc(CC(=O)c3cn(CCCC(=O)O)c4ccccc34)cc2O1` (stereo not drawn) [Example 5, 4-(3-[(2-n-butyl-2-[4-ethyl]phenyl-1,3-benzodioxolan-5-yl)methylcarbonyl]indol-1-yl)butanoic acid], the half-inhibitory concentration (IC50) in assay [1] stood at 4.5 nM; in assay [2] it was 11 nM.

As for `CCCc1ccc(C2(CCC)Oc3ccc(CC(=O)c4cn(CCCC(=O)O)c5ccccc45)cc3O2)cc1` (stereo not drawn) [Example 3], the 50% inhibitory concentration (IC50) in assay [1] is 13.3 nM; in assay [2], 14 nM.

Take `CCCCC1(c2ccc(CCC)cc2)Oc2ccc(CC(=O)c3cn(CCCC(=O)O)c4ccccc34)cc2O1` (stereo not drawn) [Example 1, 4-(3-[(2-n-Butyl-2-[4-n-propyl]phenyl-1,3-benzodioxolan-5-yl)methylcarbonyl]indol-1-yl)butanoic acid]: the IC50 was 6.9 nM in assay [1] and 15.5 nM in assay [2].

With `CCCCCC1(c2ccc(CCC)cc2)Oc2ccc(CC(=O)c3cn(CCCC(=O)O)c4ccccc34)cc2O1` (stereo not drawn) [Example 4], the figures for the IC50 in assay [1] and in assay [2] were 16.9 nM and 11 nM, respectively.

In the case of `CCCCC1(c2ccc(CCC)cc2)Oc2ccc(CC(=O)c3cn(CCCC(=O)O)c4ccccc34)cc2O1` (stereo not drawn) [Example 6], the IC50 in assay [1] amounted to 2.3 nM; in assay [2], 17.5 nM.
